# Results from patent US8952024B2, “Herbicidal pyrimidone derivatives” (E I du Pont de Nemours and Company, priority 2009, dated 2015).
# What was measured:
# Assay type in all cases: in vivo
# [1] = tested on: pigweed (Amaranthus retroflexus); experiment: Test B pre-/postemergence plant response
# Method in brief: (§1)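 Response scores were assigned visually after 13 to 15 days in a greenhouse, comparing treated pots with controls on a 0–100 scale where 100 denotes complete control. Preemergence treatments went onto freshly seeded loam/sand soil; postemergence treatments onto plants 2 to 18 cm tall.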
# [2] = tested on: blackgrass (Alopecurus myosuroides); experiment: Test B pre-/postemergence plant response
# Method in brief: as §1
# [3] = tested on: johnsongrass (Sorghum halepense); experiment: Test B pre-/postemergence plant response
# Method in brief: as §1
# wild oat (Avena fatua) = experiment: Test B pre-/postemergence plant response
# Method in brief: as §1
# [4] = tested on: giant foxtail (Setaria faberii); experiment: Test B pre-/postemergence plant response
# Method in brief: as §1
# [5] = tested on: ragweed (common ragweed, Ambrosia elatior); experiment: Test B pre-/postemergence plant response
# Method in brief: as §1
# corn (Zea mays) = experiment: Test B pre-/postemergence plant response
# Method in brief: as §1
# [6] = tested on: lambsquarters (Chenopodium album); experiment: Test B pre-/postemergence plant response
# Method in brief: as §1
# [7] = tested on: Surinam grass (Brachiaria decumbens); experiment: Test B pre-/postemergence plant response
# Method in brief: as §1
# [8] = tested on: goosegrass (Eleusine indica); experiment: Test B pre-/postemergence plant response
# Method in brief: as §1
# [9] = tested on: green foxtail (Setaria viridis); experiment: Test B pre-/postemergence plant response
# Method in brief: as §1
# [10] = tested on: umbrella sedge (Cyperus difformis); experiment: Test B flooded paddy test; details: for Plant response rating, Flood, Sedge, Umbrella: 250 g ai/ha, flooded paddy test, visual rating on 0 to 100 scale (0 no effect, 100 complete control) after 13 to 15 days; for Plant response rating, Sedge, Umbrella: Flood (flooded paddy test), 13 to 15 days
# Method in brief: (§2)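 Visual scores run from 0 (no effect) to 100 (complete control), assigned by comparison with controls 13 to 15 days after treatment. Test compounds went straight into water standing 3 cm above the soil, around plants at the 2-leaf stage kept in a greenhouse.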
# rice (Oryza sativa) = experiment: Test B flooded paddy test; details: for Plant response rating, Flood, Rice: 250 g ai/ha, flooded paddy test, visual rating on 0 to 100 scale (0 no effect, 100 complete control) after 13 to 15 days; for Plant response rating, Rice: Flood (flooded paddy test), 13 to 15 days
# Method in brief: as §2
# [11] = Postemergence, 31 g ai/ha, scale 0 to 100 (0 no effect, 100 complete control)
# [12] = Postemergence, 62 g ai/ha, scale 0 (no effect) to 100 (complete control), 13 to 15 days
# [13] = Postemergence, 125 g ai/ha, visual rating after 13 to 15 days, scale 0 (no effect) to 100 (complete control)
# [14] = Postemergence, 250 g ai/ha, scale 0 to 100
# [15] = 31 g ai/ha, scale of 0 to 100 where 0 is no effect and 100 is complete control
# [16] = 62 g ai/ha, scale 0 to 100, 0 is no effect, 100 is complete control
# [17] = 125 g ai/ha, scale 0 to 100, 0 is no effect, 100 is complete control
# [18] = 250 g ai/ha, Preemergence, 0 to 100 scale
# [19] = Preemergence, 31 g ai/ha, scale 0 to 100 (0 no effect, 100 complete control)
# [20] = Preemergence, 62 g ai/ha, scale 0 to 100 (0 no effect, 100 complete control)
# [21] = Preemergence, 125 g ai/ha, 0 to 100 scale
structure (smiles),measurement,setting,value
Cc1ccc(-n2c(-c3ccccc3)ncc(C(=O)C3=C(O)CCCC3=O)c2=O)cc1 [Compound 8],"Plant response rating, Pigweed",[1]; [11],98
same,"Plant response rating, Pigweed",[1]; [12],100
same,"Plant response rating, Pigweed",[1]; [13],100
same,Pigweed plant response rating,[1]; [14],100
same,"Plant response rating, Blackgrass",[2]; [11],5
same,"Plant response rating, Blackgrass",[2]; [12],10
same,"Plant response rating, Blackgrass",[2]; [13],10
same,Blackgrass plant response rating,[2]; [14],20
same,"Plant response rating, Johnsongrass",[3]; [11],80
same,"Plant response rating, Johnsongrass",[3]; [12],98
same,"Plant response rating, Johnsongrass",[3]; [13],98
same,Johnsongrass plant response rating,[3]; [14],100
same,"Plant response rating, Oat, Wild",wild oat (Avena fatua); [11],10
same,"Plant response rating, Oat, Wild",wild oat (Avena fatua); [12],15
same,"Plant response rating, Oat, Wild",wild oat (Avena fatua); [13],35
same,"Oat, Wild plant response rating",wild oat (Avena fatua); [14],35
same,"Plant response rating, Foxtail, Giant",[4]; [11],98
same,"Plant response rating, Foxtail, Giant",[4]; [12],100
same,"Plant response rating, Foxtail, Giant",[4]; [13],100
same,"Foxtail, Giant plant response rating",[4]; [14],100
same,"Plant response rating, Ragweed",[5]; [11],90
same,"Plant response rating, Ragweed",[5]; [12],100
same,"Plant response rating, Ragweed",[5]; [13],100
same,Ragweed plant response rating,[5]; [14],100
same,"Plant response rating, Corn",corn (Zea mays); [11],15
same,"Plant response rating, Corn",corn (Zea mays); [12],65
same,"Plant response rating, Corn",corn (Zea mays); [13],75
same,Corn plant response rating,corn (Zea mays); [14],80
same,"Plant response rating, Lambsquarters",[6]; [11],95
same,"Plant response rating, Lambsquarters",[6]; [12],100
same,"Plant response rating, Lambsquarters",[6]; [13],100
same,Lambsquarters plant response rating,[6]; [14],100
same,"Plant response rating, Surinam Grass",[7]; [11],60
same,"Plant response rating, Surinam Grass",[7]; [12],65
same,"Plant response rating, Surinam Grass",[7]; [13],75
same,Surinam Grass plant response rating,[7]; [14],80
same,"Plant response rating, Goosegrass",[8]; [11],80
same,"Plant response rating, Goosegrass",[8]; [12],85
same,"Plant response rating, Goosegrass",[8]; [13],95
same,Goosegrass plant response rating,[8]; [14],100
same,"Plant response rating, Foxtail, Green",[9]; [11],40
same,"Plant response rating, Foxtail, Green",[9]; [12],70
same,"Plant response rating, Foxtail, Green",[9]; [13],85
same,"Foxtail, Green plant response rating",[9]; [14],95
same,"Plant response rating, Flood, Sedge, Umbrella",[10],95
same,"Plant response rating, Sedge, Umbrella",[10]; [15],30
same,"Plant response rating, Sedge, Umbrella",[10]; [16],65
same,"Plant response rating, Sedge, Umbrella",[10]; [17],85
same,"Plant response rating, Flood, Rice",rice (Oryza sativa),50
same,"Plant response rating, Rice",rice (Oryza sativa); [15],0
same,"Plant response rating, Rice",rice (Oryza sativa); [16],0
same,"Plant response rating, Rice",rice (Oryza sativa); [17],15
Cc1ccccc1-n1c(-c2ccccc2)ncc(C(=O)C2=C(O)CCCC2=O)c1=O [Compound 12],"Plant response rating, Pigweed",[1]; [18],100
same,"Plant response rating, Pigweed",[1]; [11],95
same,"Plant response rating, Pigweed",[1]; [12],95
same,"Plant response rating, Pigweed",[1]; [13],98
same,Pigweed plant response rating,[1]; [14],100
same,"Plant response rating, Pigweed",[1]; [19],100
same,"Plant response rating, Pigweed",[1]; [20],100
same,Pigweed plant response rating,[1]; [21],100
same,"Plant response rating, Blackgrass",[2]; [18],10
same,"Plant response rating, Blackgrass",[2]; [11],10
same,"Plant response rating, Blackgrass",[2]; [12],10
same,"Plant response rating, Blackgrass",[2]; [13],10
same,Blackgrass plant response rating,[2]; [14],20
same,"Plant response rating, Blackgrass",[2]; [19],0
same,"Plant response rating, Blackgrass",[2]; [20],0
same,Blackgrass plant response rating,[2]; [21],5
same,"Plant response rating, Johnsongrass",[3]; [18],98
same,"Plant response rating, Johnsongrass",[3]; [11],55
same,"Plant response rating, Johnsongrass",[3]; [12],60
same,"Plant response rating, Johnsongrass",[3]; [13],60
same,Johnsongrass plant response rating,[3]; [14],75
same,"Plant response rating, Johnsongrass",[3]; [19],0
same,"Plant response rating, Johnsongrass",[3]; [20],0
same,Johnsongrass plant response rating,[3]; [21],75
same,"Plant response rating, Oat, Wild",wild oat (Avena fatua); [18],5
same,"Plant response rating, Oat, Wild",wild oat (Avena fatua); [11],0
same,"Plant response rating, Oat, Wild",wild oat (Avena fatua); [12],5
same,"Plant response rating, Oat, Wild",wild oat (Avena fatua); [13],20
same,"Oat, Wild plant response rating",wild oat (Avena fatua); [14],20
same,"Plant response rating, Oat, Wild",wild oat (Avena fatua); [19],0
same,"Plant response rating, Oat, Wild",wild oat (Avena fatua); [20],0
same,"Oat, Wild plant response rating",wild oat (Avena fatua); [21],0
same,"Plant response rating, Foxtail, Giant",[4]; [18],100
same,"Plant response rating, Foxtail, Giant",[4]; [11],75
same,"Plant response rating, Foxtail, Giant",[4]; [12],90
same,"Plant response rating, Foxtail, Giant",[4]; [13],98
same,"Foxtail, Giant plant response rating",[4]; [14],98
same,"Plant response rating, Foxtail, Giant",[4]; [19],0
same,"Plant response rating, Foxtail, Giant",[4]; [20],20
same,"Foxtail, Giant plant response rating",[4]; [21],70
same,"Plant response rating, Ragweed",[5]; [18],100
same,"Plant response rating, Ragweed",[5]; [11],100
same,"Plant response rating, Ragweed",[5]; [12],100
same,"Plant response rating, Ragweed",[5]; [13],100
same,Ragweed plant response rating,[5]; [14],100
same,"Plant response rating, Ragweed",[5]; [19],90
same,"Plant response rating, Ragweed",[5]; [20],98
same,Ragweed plant response rating,[5]; [21],100
same,"Plant response rating, Corn",corn (Zea mays); [18],75
same,"Plant response rating, Corn",corn (Zea mays); [11],25
same,"Plant response rating, Corn",corn (Zea mays); [12],30
same,"Plant response rating, Corn",corn (Zea mays); [13],45
same,Corn plant response rating,corn (Zea mays); [14],75
same,"Plant response rating, Corn",corn (Zea mays); [19],0
same,"Plant response rating, Corn",corn (Zea mays); [20],0
same,Corn plant response rating,corn (Zea mays); [21],15
same,"Plant response rating, Lambsquarters",[6]; [18],100
same,"Plant response rating, Lambsquarters",[6]; [11],80
same,"Plant response rating, Lambsquarters",[6]; [12],85
same,"Plant response rating, Lambsquarters",[6]; [13],98
same,Lambsquarters plant response rating,[6]; [14],98
same,"Plant response rating, Lambsquarters",[6]; [19],100
same,"Plant response rating, Lambsquarters",[6]; [20],100
same,Lambsquarters plant response rating,[6]; [21],100
same,"Plant response rating, Surinam Grass",[7]; [18],100
same,"Plant response rating, Surinam Grass",[7]; [11],25
same,"Plant response rating, Surinam Grass",[7]; [12],55
same,"Plant response rating, Surinam Grass",[7]; [13],65
same,Surinam Grass plant response rating,[7]; [14],85
same,"Plant response rating, Surinam Grass",[7]; [19],35
same,"Plant response rating, Surinam Grass",[7]; [20],60
same,Surinam Grass plant response rating,[7]; [21],95
same,"Plant response rating, Goosegrass",[8]; [18],100
same,"Plant response rating, Goosegrass",[8]; [11],70
same,"Plant response rating, Goosegrass",[8]; [12],85
same,"Plant response rating, Goosegrass",[8]; [13],98
same,Goosegrass plant response rating,[8]; [14],100
same,"Plant response rating, Goosegrass",[8]; [19],85
same,Goosegrass plant response rating,[8]; [21],100
same,"Plant response rating, Foxtail, Green",[9]; [18],80
same,"Plant response rating, Foxtail, Green",[9]; [11],40
same,"Plant response rating, Foxtail, Green",[9]; [12],60
same,"Plant response rating, Foxtail, Green",[9]; [13],70
same,"Foxtail, Green plant response rating",[9]; [14],70
same,"Plant response rating, Foxtail, Green",[9]; [19],0
same,"Plant response rating, Foxtail, Green",[9]; [20],0
same,"Foxtail, Green plant response rating",[9]; [21],40
same,"Plant response rating, Flood, Sedge, Umbrella",[10],65
same,"Plant response rating, Sedge, Umbrella",[10]; [15],20
same,"Plant response rating, Sedge, Umbrella",[10]; [16],40
same,"Plant response rating, Sedge, Umbrella",[10]; [17],50
same,"Plant response rating, Flood, Rice",rice (Oryza sativa),0
same,"Plant response rating, Rice",rice (Oryza sativa); [15],0
same,"Plant response rating, Rice",rice (Oryza sativa); [16],0
same,"Plant response rating, Rice",rice (Oryza sativa); [17],0
